Experimental data reported in patent US20060223889A1 (priority 2003, published 2006).

Key:
[1] = Stability in aqueous solution; format: physicochemical
[2] = physchem; details: pH 7, water

- hydrolysis when dissolved in water [1]: readily hydrolyses
- solubility [2]: ≤ 1300 µg/mL
Structure (SMILES): CS(=O)(=O)c1ccc([C@@H](O)[C@@H](CF)NC(=O)C(Cl)Cl)cc1 [Florfenicol, D-(threo)-1-p-methylsulfonyl phenyl-2-dichloroacetamido-3-fluoro-1-propanol]
